According to patent US12221439B2, “Tetrahydropyridopyrimidine derivatives as AhR modulators” (JAGUAHR THERAPEUTICS PTE LTD, priority 2018, dated 2025):

Legend:
CYP1A1 = CYP1A1 (Homo sapiens (Human), UniProt P04798); test: CYP1A1 inhibition assay (Promega P450-Glo, Cypex bactosomes); assay type: biochemical; settings: direct CYP1A1 inhibition, Luciferin-CEE 30 μM, NADPH, 37° C., arithmetic mean of pIC50
Procedure: In Vitro Assay 22: […] Inhibition Assay
The direct CYP1A1 inhibitory activity of test compounds was also assessed using the Promega P450-Glo™ assay system. Seven concentrations of test compound were added to a ½ area white 96 well plate. Cypex […]. bactosomes ([final] 0.5 pmol) and CYPA substrate Luciferin-CEE ([final] 30 μM) were prepared in 0.1M potassium phosphate buffer and incubated with test compounds at 37° C. for 5 minutes. 0.2m NADPH was then added to the plates and incubated at 37° C., for 10 minutes. The reaction was stopped by adding luciferin detection reagent and luminescence was read after 20 minutes.

AhR = AhR (Homo sapiens (Human), UniProt P35869); test: AhR antagonism in U937 cells (Promega P450-Glo assay); assay type: cell-based; settings: inhibition of agonist (KYNA) response, CYP1A1 activity readout (Luciferin-CEE), 24 hrs, arithmetic mean of pIC50
Chain of AhR (P35869 11-848): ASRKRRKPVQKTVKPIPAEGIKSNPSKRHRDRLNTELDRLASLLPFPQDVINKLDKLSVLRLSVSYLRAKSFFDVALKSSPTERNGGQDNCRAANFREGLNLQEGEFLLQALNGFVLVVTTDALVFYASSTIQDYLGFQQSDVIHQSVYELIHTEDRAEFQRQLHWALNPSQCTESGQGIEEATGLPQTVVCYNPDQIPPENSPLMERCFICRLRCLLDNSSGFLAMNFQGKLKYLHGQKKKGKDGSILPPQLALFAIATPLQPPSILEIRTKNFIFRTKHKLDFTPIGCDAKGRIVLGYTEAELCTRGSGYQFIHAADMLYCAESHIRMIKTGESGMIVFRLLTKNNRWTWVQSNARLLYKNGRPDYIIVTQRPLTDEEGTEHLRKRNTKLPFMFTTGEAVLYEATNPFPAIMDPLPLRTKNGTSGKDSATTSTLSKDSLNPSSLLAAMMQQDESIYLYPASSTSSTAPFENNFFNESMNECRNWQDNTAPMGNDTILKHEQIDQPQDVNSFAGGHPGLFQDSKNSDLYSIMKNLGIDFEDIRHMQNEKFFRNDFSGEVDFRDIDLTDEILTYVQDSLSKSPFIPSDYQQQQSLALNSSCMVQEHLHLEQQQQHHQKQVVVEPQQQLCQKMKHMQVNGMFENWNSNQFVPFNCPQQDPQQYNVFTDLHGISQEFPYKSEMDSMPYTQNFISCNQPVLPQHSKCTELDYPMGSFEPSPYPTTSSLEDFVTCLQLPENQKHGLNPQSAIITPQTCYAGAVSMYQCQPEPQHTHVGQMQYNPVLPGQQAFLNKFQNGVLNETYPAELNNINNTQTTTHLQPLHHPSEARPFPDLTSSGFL
Procedure: Examples were tested in selected biological assays two or more times. Data are reported as the arithmetic mean of the pIC50 (−log10IC50) values, where IC50 is defined as the concentration of compound producing a 50% inhibition of the agonist (KYNA) response.
In Vitro Assay 1: AhR Antagonism in U937 Cells (Promega P450-Glo™ Assay)
AhR antagonism was assessed in U937 cells (myeloid lineage cell line derived from a human histiocytic lymphoma).). Ligand binds the AhR in the cytoplasm, and the AhR-ligand complex translocates to the nucleus and forms a heterodimer with AhR nuclear translocator (Arnt). This complex binds the xenobiotic response element (XRE) in the 5′ upstream region of the CYP1A1 promoter, enhancing CYP1A1 expression. CYP1A1 activity is subsequently determined by assessing the conversion of Luciferin-CEE to luciferin, which in turn reacts with luciferase to produce light. The amount of light produced is directly proportional to cytochrome P450 activity. U937 cells in Ultraculture serum free media (Lonza) were plated at 100,000 cells per well in a round bottom 96 well tissue culture plate. Seven concentrations of test compound (final [DMSO] 1%) were added and incubated for 10 minutes before the addition of […] KYNA. The plates were then placed in an incubator at 37° C., >85% humidity, 5% CO2 for 24 hrs. After aspiration of the supernatant the CYP1A1 substrate Luciferin-CEE ([Final] 83 μM) was added and incubated for 3 hrs before the reaction was stopped by adding luciferin detection reagent and luminescence was read after 20 minutes.

Chain of CYP1A1 (P04798 whole entry): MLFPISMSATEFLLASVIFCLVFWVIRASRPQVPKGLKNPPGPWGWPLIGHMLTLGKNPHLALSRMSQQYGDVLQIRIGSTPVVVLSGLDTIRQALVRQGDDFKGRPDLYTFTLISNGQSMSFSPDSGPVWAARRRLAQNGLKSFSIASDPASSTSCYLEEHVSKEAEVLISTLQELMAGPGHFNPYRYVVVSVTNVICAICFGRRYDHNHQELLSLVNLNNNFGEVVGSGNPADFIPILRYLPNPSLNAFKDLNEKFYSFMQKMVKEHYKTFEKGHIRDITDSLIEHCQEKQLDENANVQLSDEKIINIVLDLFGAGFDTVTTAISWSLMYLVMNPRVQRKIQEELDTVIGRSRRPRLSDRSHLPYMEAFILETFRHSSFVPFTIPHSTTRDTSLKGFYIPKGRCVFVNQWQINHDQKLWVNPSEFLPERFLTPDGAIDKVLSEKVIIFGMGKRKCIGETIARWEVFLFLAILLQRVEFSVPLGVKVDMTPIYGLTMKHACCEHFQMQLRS

Row | Compound | cyp1A1 pIC50 (CYP1A1) | IC50 (AhR) [nM]
1 | N#Cc1cncc(-c2nc3c(c(NCCc4c[nH]c5ccccc45)n2)CCNC3)c1 [Example 23, 5-(4-((2-(1H-indol-3-yl)ethyl)amino)-5,6,7,8-tetrahydropyrido[3,4-d]pyrimidin-2-yl)nicotinonitrile] | 6.70 | 10
2 | Fc1cncc(-c2nc3c(c(NCCc4c[nH]c5ccccc45)n2)CNC3)c1 [Example 24, N-(2-(1H-indol-3-yl)ethyl)-2-(5-fluoropyridin-3-yl)-6,7-dihydro-5H-pyrrolo[3,4-d]pyrimidin-4-amine] | 6.60 | 12.6
3 | Fc1cncc(-c2nc3c(c(NCCc4nc5ccccc5[nH]4)n2)CNCC3)c1 [Example 28, N-(2-(1H-benzo[d]imidazol-2-yl)ethyl)-2-(5-fluoropyridin-3-yl)-5,6,7,8-tetrahydropyrido[4,3-d]pyrimidin-4-amine] | 5.5 | > 10000
4 | Fc1cncc(-c2nc3c(c(NCCc4c[nH]c5cc(F)ccc45)n2)CCNC3)c1 [Example 29, N-(2-(6-fluoro-1H-indol-3-yl)ethyl)-2-(5-fluoropyridin-3-yl)-5,6,7,8-tetrahydropyrido[3,4-d]pyrimidin-4-amine] | 6.7 | 7.94
5 | Fc1cncc(-c2nc3c(c(NCCc4c[nH]c5ccc(F)cc45)n2)CCNC3)c1 [Example 30, N-(2-(5-fluoro-1H-indol-3-yl)ethyl)-2-(5-fluoropyridin-3-yl)-5,6,7,8-tetrahydropyrido [3,4-d]pyrimidin-4-amine] | 6.5 | 26.3

These reach a lower IC50 (AhR). Values come first.

Row | cyp1A1 pIC50 (CYP1A1) | IC50 (AhR) [nM] | Compound
6 | 7.2 | 6.17 | Cc1cncc(-c2nc3c(c(NCCc4c[nH]c5ccccc45)n2)CNCC3)c1 [Example 26, N-(2-(1H-indol-3-yl)ethyl)-2-(5-methylpyridin-3-yl)-5,6,7,8-tetrahydro pyrido[4,3-d]pyrimidin-4-amine]
7 | 7.1 | 6.03 | Fc1cncc(-c2nc3c(c(NCCc4c[nH]c5ccc(F)cc45)n2)CNCC3)c1 [Example 32, N-(2-(5-fluoro-1H-indol-3-yl)ethyl)-2-(5-fluoropyridin-3-yl)-5,6,7,8-tetrahydropyrido[4,3-d]pyrimidin-4-amine]
8 | 7.2 | 5.13 | Fc1cncc(-c2nc3c(c(NCCc4c[nH]c5cc(F)ccc45)n2)CNCC3)c1 [Example 31, N-(2-(6-fluoro-1H-indol-3-yl)ethyl)-2-(5-fluoropyridin-3-yl)-5,6,7,8-tetrahydropyrido[4,3-d]pyrimidin-4-amine]
9 | 6.20 | 5.01 | CS(=O)(=O)N1Cc2nc(-c3cncc(F)c3)nc(NCCc3c[nH]c4ccccc34)c2C1 [Example 25, N-(2-(1H-indol-3-yl)ethyl)-2-(5-fluoropyridin-3-yl)-6-(methylsulfonyl)-6,7-dihydro-5H-pyrrolo[3,4-d]pyrimidin-4-amine]
10 | 7.2 | 4.47 | Clc1cncc(-c2nc3c(c(NCCc4c[nH]c5ccccc45)n2)CNCC3)c1 [Example 27, N-(2-(1H-indol-3-yl)ethyl)-2-(5-chloropyridin-3-yl)-5,6,7,8-tetrahydropyrido[4,3-d]pyrimidin-4-amine]
